#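 Values below derive from 48-hour exposures of cells grown in 96-well plates, with endpoints linearly interpolated between the two concentrations bracketing the appropriate inhibition level. At the GI50, growth is halved.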 The source made the active and inactive calls. Rule as the data show it: active = GI50 up to about 1.1 µM and inactive = higher.
# What was measured:
# Experiment in all cases: NCI-60 cell line screen, 48 h
# UACC-62 = system: UACC-62
# HL-60 = system: HL-60
# RPMI-8226 = system: RPMI-8226
# SN12C = system: SN12C
# M14 = system: M14
# Malme-3M = system: Malme-3M
# IGROV-1 = system: IGROV-1
# RXF 393 = system: RXF 393
# K562 = system: K562
# OVCAR-3 = system: OVCAR-3
# OVCAR-5 = system: OVCAR-5
# SW-620 = system: SW-620
# SF-295 = system: SF-295
# EKVX = system: EKVX
# SF-539 = system: SF-539
# 786-0 = system: 786-0
# DU-145 = system: DU-145
# COLO 205 = system: COLO 205
# SK-MEL-2 = system: SK-MEL-2
# SNB-75 = system: SNB-75
# SNB-19 = system: SNB-19
# MDA-MB-435 = system: MDA-MB-435
# A549 = system: A549
# T47D = system: T47D
# HCT-15 = system: HCT-15
# NCI-H23 = system: NCI-H23
# Hs-578T = system: Hs-578T
# MDA-N = system: MDA-N
# SF-268 = system: SF-268
# PC-3 = system: PC-3
# NCI-H522 = system: NCI-H522
# CAKI-1 = system: CAKI-1
# CCRF-CEM = system: CCRF-CEM
# NCI-H226 = system: NCI-H226
# HCC 2998 = system: HCC 2998
# HCT-116 = system: HCT-116
# LOX IMVI = system: LOX IMVI
# A498 = system: A498
# NCI-H460 = system: NCI-H460
# UO-31 = system: UO-31
# KM12 = system: KM12
# U-251 = system: U-251
# BT-549 = system: BT-549
# HT-29 = system: HT-29
# OVCAR-4 = system: OVCAR-4
# TK-10 = system: TK-10
# MCF7 = system: MCF7
# HOP-62 = system: HOP-62
# SK-MEL-5 = system: SK-MEL-5
# SK-MEL-28 = system: SK-MEL-28
# MOLT-4 = system: MOLT-4
# UACC-257 = system: UACC-257
# MDA-MB-231 = system: MDA-MB-231
# ACHN = system: ACHN
# OVCAR-8 = system: OVCAR-8
# HOP-92 = system: HOP-92
# SK-OV-3 = system: SK-OV-3
# NCI/ADR-RES = system: NCI/ADR-RES
# SR = system: SR
smiles,measurement,setting,value
CCOC(=O)/C(C#N)=C(/NNc1ccccc1)c1ccncc1C(=O)O,GI50,UACC-62,5.15 µM (inactive)
same,GI50,HL-60,2.75 µM (inactive)
same,GI50,RPMI-8226,> 56.8 µM (inactive)
same,GI50,SN12C,> 100 µM (inactive)
same,GI50,M14,5.66 µM (inactive)
same,GI50,Malme-3M,> 100 µM (inactive)
same,GI50,IGROV-1,> 100 µM (inactive)
same,GI50,RXF 393,> 100 µM (inactive)
same,GI50,K562,3.28 µM (inactive)
same,GI50,OVCAR-3,> 100 µM (inactive)
same,GI50,OVCAR-5,> 72.1 µM (inactive)
same,GI50,SW-620,3.27 µM (inactive)
same,GI50,SF-295,5.47 µM (inactive)
same,GI50,EKVX,> 100 µM (inactive)
same,GI50,SF-539,24.7 µM (inactive)
same,GI50,786-0,> 100 µM (inactive)
same,GI50,DU-145,> 42.7 µM (inactive)
same,GI50,COLO 205,4.37 µM (inactive)
same,GI50,SK-MEL-2,> 75.2 µM (inactive)
same,GI50,SNB-75,> 100 µM (inactive)
same,GI50,SNB-19,> 100 µM (inactive)
same,GI50,MDA-MB-435,5.68 µM (inactive)
same,GI50,A549,> 52.7 µM (inactive)
same,GI50,T47D,8.17 µM (inactive)
same,GI50,HCT-15,> 22.7 µM
same,GI50,NCI-H23,> 100 µM (inactive)
same,GI50,Hs-578T,> 100 µM (inactive)
same,GI50,MDA-N,> 40.8 µM (inactive)
same,GI50,SF-268,> 100 µM (inactive)
same,GI50,PC-3,7.08 µM (inactive)
same,GI50,NCI-H522,> 100 µM (inactive)
same,GI50,CAKI-1,> 73.1 µM (inactive)
same,GI50,CCRF-CEM,> 38.2 µM (inactive)
same,GI50,NCI-H226,> 100 µM (inactive)
same,GI50,HCC 2998,> 22.4 µM (inactive)
same,GI50,HCT-116,> 100 µM (inactive)
same,GI50,LOX IMVI,2.81 µM (inactive)
same,GI50,A498,> 100 µM (inactive)
same,GI50,NCI-H460,> 28.1 µM (inactive)
same,GI50,UO-31,4.49 µM (inactive)
same,GI50,KM12,3.4 µM (inactive)
same,GI50,U-251,> 100 µM (inactive)
same,GI50,BT-549,> 100 µM (inactive)
same,GI50,HT-29,> 63.5 µM (inactive)
same,GI50,OVCAR-4,> 100 µM (inactive)
same,GI50,TK-10,> 100 µM (inactive)
same,GI50,MCF7,> 64.9 µM (inactive)
same,GI50,HOP-62,> 100 µM (inactive)
same,GI50,SK-MEL-5,9.82 µM (inactive)
same,GI50,SK-MEL-28,> 39.1 µM (inactive)
same,GI50,MOLT-4,5.09 µM (inactive)
same,GI50,UACC-257,26.2 µM (inactive)
same,GI50,MDA-MB-231,> 100 µM (inactive)
same,GI50,ACHN,> 21.5 µM (inactive)
same,GI50,OVCAR-8,> 32.4 µM (inactive)
same,GI50,HOP-92,> 100 µM (inactive)
same,GI50,SK-OV-3,> 100 µM (inactive)
c1cc(-c2ncc(-c3ccc4c(c3)CCCO4)o2)ccn1,GI50,UACC-62,15.6 µM (inactive)
same,GI50,HL-60,2.42 µM (inactive)
same,GI50,RPMI-8226,8.47 µM (inactive)
same,GI50,SN12C,25.8 µM (inactive)
same,GI50,M14,21.6 µM (inactive)
same,GI50,Malme-3M,10.4 µM (inactive)
same,GI50,IGROV-1,15.6 µM (inactive)
same,GI50,RXF 393,8.83 µM (inactive)
same,GI50,K562,1.85 µM (inactive)
same,GI50,OVCAR-3,11.4 µM (inactive)
same,GI50,OVCAR-5,42.2 µM (inactive)
same,GI50,SF-295,16.6 µM (inactive)
same,GI50,EKVX,18.6 µM (inactive)
same,GI50,SF-539,9.38 µM (inactive)
same,GI50,786-0,26.6 µM (inactive)
same,GI50,DU-145,12 µM (inactive)
same,GI50,COLO 205,5.42 µM (inactive)
same,GI50,SK-MEL-2,10.8 µM (inactive)
same,GI50,SNB-75,2.08 µM (inactive)
same,GI50,SNB-19,8.79 µM (inactive)
same,GI50,MDA-MB-435,2.36 µM (inactive)
same,GI50,A549,7.41 µM (inactive)
same,GI50,T47D,12.5 µM (inactive)
same,GI50,HCT-15,6.24 µM
same,GI50,NCI-H23,14.7 µM (inactive)
same,GI50,Hs-578T,17.4 µM (inactive)
same,GI50,MDA-N,2.48 µM (inactive)
same,GI50,SF-268,19.3 µM (inactive)
same,GI50,PC-3,11.5 µM (inactive)
same,GI50,NCI-H522,3.78 µM (inactive)
same,GI50,CAKI-1,20 µM (inactive)
same,GI50,CCRF-CEM,4.83 µM (inactive)
same,GI50,NCI-H226,21 µM (inactive)
same,GI50,HCT-116,10.7 µM (inactive)
same,GI50,LOX IMVI,8.41 µM (inactive)
same,GI50,A498,10.6 µM (inactive)
same,GI50,UO-31,23.2 µM (inactive)
same,GI50,NCI/ADR-RES,3.94 µM (inactive)
same,GI50,U-251,11.2 µM (inactive)
same,GI50,BT-549,13.2 µM (inactive)
same,GI50,HT-29,7.4 µM (inactive)
same,GI50,OVCAR-4,18 µM (inactive)
same,GI50,TK-10,7.43 µM (inactive)
same,GI50,MCF7,12.8 µM (inactive)
same,GI50,HOP-62,18.1 µM (inactive)
same,GI50,SK-MEL-5,9.2 µM (inactive)
same,GI50,SK-MEL-28,11.6 µM (inactive)
same,GI50,MOLT-4,3.06 µM (inactive)
same,GI50,UACC-257,13.2 µM (inactive)
same,GI50,MDA-MB-231,17.7 µM (inactive)
same,GI50,ACHN,22.3 µM (inactive)
same,GI50,OVCAR-8,16.7 µM (inactive)
same,GI50,HOP-92,21.6 µM (inactive)
same,GI50,SK-OV-3,15.6 µM (inactive)
O=c1[nH]cnc2c(C3OC(CO)C(O)C3O)c[nH]c12 (stereo unspecified),GI50,UACC-62,> 100 µM (inactive)
same,GI50,HL-60,> 100 µM (inactive)
same,GI50,RPMI-8226,> 100 µM (inactive)
same,GI50,SR,> 100 µM (inactive)
same,GI50,SN12C,> 100 µM (inactive)
same,GI50,M14,> 100 µM (inactive)
same,GI50,Malme-3M,> 100 µM (inactive)
same,GI50,IGROV-1,> 100 µM (inactive)
same,GI50,RXF 393,> 100 µM (inactive)
same,GI50,K562,> 100 µM (inactive)
same,GI50,OVCAR-3,> 100 µM (inactive)
same,GI50,OVCAR-5,> 100 µM (inactive)
same,GI50,SW-620,> 100 µM (inactive)
same,GI50,SF-295,> 100 µM (inactive)
same,GI50,EKVX,> 100 µM (inactive)
same,GI50,SF-539,> 100 µM (inactive)
same,GI50,786-0,> 100 µM (inactive)
same,GI50,DU-145,> 100 µM (inactive)
same,GI50,COLO 205,> 100 µM (inactive)
same,GI50,SNB-75,> 100 µM (inactive)
same,GI50,SNB-19,> 100 µM (inactive)
same,GI50,MDA-MB-435,> 100 µM (inactive)
same,GI50,A549,> 100 µM (inactive)
same,GI50,T47D,> 100 µM (inactive)
same,GI50,NCI-H23,> 100 µM (inactive)
same,GI50,Hs-578T,> 100 µM (inactive)
same,GI50,MDA-N,> 100 µM (inactive)
same,GI50,SF-268,> 100 µM (inactive)
same,GI50,PC-3,> 100 µM (inactive)
same,GI50,NCI-H522,> 100 µM (inactive)
same,GI50,CAKI-1,> 100 µM (inactive)
same,GI50,CCRF-CEM,> 100 µM (inactive)
same,GI50,NCI-H226,> 100 µM (inactive)
same,GI50,HCC 2998,> 100 µM (inactive)
same,GI50,HCT-116,> 100 µM (inactive)
same,GI50,LOX IMVI,> 100 µM (inactive)
same,GI50,NCI-H460,> 100 µM (inactive)
same,GI50,UO-31,> 100 µM (inactive)
same,GI50,KM12,> 100 µM (inactive)
same,GI50,U-251,> 100 µM (inactive)
same,GI50,BT-549,> 100 µM (inactive)
same,GI50,HT-29,> 100 µM (inactive)
same,GI50,OVCAR-4,> 100 µM (inactive)
same,GI50,TK-10,> 100 µM (inactive)
same,GI50,MCF7,> 100 µM (inactive)
same,GI50,HOP-62,> 100 µM (inactive)
same,GI50,SK-MEL-5,> 100 µM (inactive)
same,GI50,SK-MEL-28,> 100 µM (inactive)
same,GI50,MOLT-4,> 100 µM (inactive)
same,GI50,UACC-257,> 100 µM (inactive)
same,GI50,MDA-MB-231,> 100 µM (inactive)
same,GI50,ACHN,> 100 µM (inactive)
same,GI50,OVCAR-8,> 100 µM (inactive)
same,GI50,HOP-92,68.7 µM (inactive)
same,GI50,SK-OV-3,> 100 µM (inactive)
